From patent publication US10919890B2, “Salts and pharmaceutical compositions thereof for the treatment of inflammatory disorders” (GALAPAGOS NV, priority 2014, dated 2021)
Structures can show the parent of a compound that is named as a salt.

Assays:
[1] = Complementary salt analysis (stability, hygroscopicity); format: physicochemical; details: for Hygroscopicity: salt from Protocol 4; for Salt stability: stability evaluation 1 week at 40° C./75% Relative humidity
[2] = Dissolution in solvents (salt Protocol 1); format: physicochemical; details: DCM, up to 20 relative volumes, agitated at 50° C.
Excerpt: The solvent is selected from isopropanol, ethanol, methanol, isopropyl acetate, THF, TBME, acetone, methyl ethyl ketone, DCM, and MeCN.

[3] = Dog bioavailability study; parameters: species or system beagle dogs; details: in vivo, po, 25 mg/kg
Description: The dogs are not fasted before dosing, and have free access to water. Every day of the treatment, a half food ration is provided after the T0 blood sampling, 8 to 17 min before treatment, and the second half ration is given just after dosing or 1 h after treatment for period 2. A 3 days washout period is ensured between treatments. […] The capsule composition is described in Table XX below. The capsules are administered orally with water (5-10 mL), to provide good oesophageal transit. Each animal is checked at least once daily. Blood is collected from the jugular vein into lithium heparinised tubes at T0 (before food administration) and then at 1 […], and 24 h post treatment. Plasma is then obtained from blood by centrifugation (2500 g for 10 min at 4° C.), and stored at -20° C. until analysis. […] After vortex mixing and centrifugation at 4° C., the supernatants are diluted with a 0.5 volume of HPLC grade water in a midi-eppendorf 96-well plate. The plate is sealed and shaken to ensure sample homogeneity prior to analysis. […] Pharmacokinetic analysis is performed using WinNonlinTM software version 5.3, using concentrations from individual animals. Non-compartmental analysis is applied to determine the PK parameters (Cmax, Tmax, AUC0-last, t1/2, etc. . . . ) Concentrations below the limit of detection are set to zero for descriptive statistics and PK parameter calculations.

Compound | Hygroscopicity [1] | Salt stability [1] | further results
O=C(O)/C=C\C(=O)O [Compound 1 maleic acid salt] | non-hygroscopic |  | 
O=C(Nc1nc2cccc(-c3ccc(CN4CCS(=O)(=O)CC4)cc3)n2n1)C1CC1.O=C(O)/C=C\C(=O)O [Compound 1 maleic acid salt] |  | stable | 
O=C(Nc1nc2cccc(-c3ccc(CN4CCS(=O)(=O)CC4)cc3)n2n1)C1CC1 [Compound 1, cyclopropane carboxylic acid {5-[4-(1,1-dioxo-thiomorpholin-4-ylmethyl)-phenyl]-[1,2,4]triazolo[1,5-a]pyridin-2-yl}-amide] |  |  | Dissolution in solvent [2]: almost full dissolution
Cl.O.O.O.O=C(Nc1nc2cccc(-c3ccc(CN4CCS(=O)(=O)CC4)cc3)n2n1)C1CC1 [Compound 1.HCl.3H2O] |  |  | Tmax [3]: 2.0 h
Cl.O=C(Nc1nc2cccc(-c3ccc(CN4CCS(=O)(=O)CC4)cc3)n2n1)C1CC1 [Compound 1 HCl salt] | non-hygroscopic | stable | 
